{"source": "patent US4829061A", "about": "“1-(4-Hydroxy-3,5-di-tert.-butylbenzoyl)homopiperazine, various derivatives thereof, processes for the preparation of these compounds, medicaments containing them, and their use” (Hoechst Aktiengesellschaft, priority 1987, dated 1989)", "key": {"[1]": {"experiment": "Determination of toxicity in the rat, 14 days (weight gain)", "assay_type": "in vivo, rat (male and female Wistar)", "conditions": "50 or 75 mg/kg p.o. each day for 14 days", "method": "(§1) The antiinflammatory effect of the compounds of the formula I, according to the invention, was tested on adjuvant arthritis, and the effect on forms of rheumatic disorders having a severe course (chronic graft-versus-host diseases and autoimmune diseases mediated by immune complexes) was tested on the chronic graft-versus-host (cGvH) reaction in the mouse and in the reverse passive Arthus reaction in the rat in accordance with the animal models described below. The tolerability was determined by determining the toxicity in rats, namely by continuous administration for 14 days.\nGroups of 10 male and female Wistar rats were fed each day for a period of 14 days with 50 or 75 mg/kg p.o., and were weighed every 2 days. The experiment was terminated after 14 days, and the weight gain was determined. The same number of rats not treated with the products acted as controls. […] This is regarded as a critical parameter for the tolerability of a compound."}, "cGvH disease": {"tested_on": "cGvH disease", "experiment": "Chronic graft-versus-host (cGvH) reaction in the mouse", "assay_type": "in vivo, mouse (female (DBA/2×C57Bl/6)F1)", "conditions": "6 weeks from day 21", "method": "as §1\nThe features of graft-versus-host disease, which is based on an immune reaction originating from the transplant and directed against the host tissue, are, in the form having an acute course which almost always ends fatally, enlargement of the spleen, hepatomegaly, lymph node hypertrophy, hemolytic anemia, low immunoglobulin and complement levels, and diminished immunoreactivity. The chronic form of the disease, which has a somewhat milder course, results in lymphadenopathy, immune complex glomerulonephritis and excessive formation of non-organ-specific autoantibodies. The clinical picture of systemic lupus erythematosus (SLE), which is likewise one of the autoimmune diseases, has similar features.\nInvestigation of the compounds used according to the invention on the course of the cGvH disease induced in response to two injections of spleen and thymus cells, mixed together, in female mice of the (DBA/2×C57Bl/6)F1 generation was carried out by the design of experiment described by S. Popovic and R. R. Bartlett (Agents and Actions 21 (1987), 284-286), with intravenous administration, at a time interval of 7 days, of, in each case, 5×10^7 DBA/2 cells, likewise obtained from female donor animals, in 0.2 ml of culture medium. For reliable assessment of the course and appearance of the disease, a group of healthy animals was included as negative controls in all the experiments. The 6-week oral treatment of the animals with the disease took place from day 21 after the first donor cell injection, with administration once a day of the test substance or the pure vehicle (positive controls). […]\nThe action of the product was assessed on the basis of the inhibition of proteinuria and the cGvH index. The animals with the disease develop, as a consequence of the damage to nephrons due to deposition of immune complexes on the basement membranes of the glomeruli, a pronounced proteinuria which correlates with the extent of the glomerulonephritis and can easily be quantified by the increase in the amount of protein excreted with the urine. The second measured parameter, the cGvH index, is based on the great enlargement of the spleen (splenomegaly) caused by the cGvH reaction. […]"}, "[2]": {"tested_on": "reverse passive Arthus reaction", "experiment": "Reverse passive Arthus reaction in the rat", "assay_type": "in vivo, rat (female and male Sprague-Dawley)", "conditions": "1 hour before induction, paw volume 4 hours after ovalbumin challenge", "method": "as §1\nThe experimental animals used were female and male Sprague-Dawley rats with a body weight between 80 and 100 g. The rats were divided into groups each comprising 8 animals. 1 hour before the Arthus reaction was induced by injection of 0.1 ml of an anti-rat IgG solution (0.6 mg/ml) into the right rear paw, the particular test substance or the pure vehicle (positive controls) was administered orally. Sodium chloride solution was injected into the left paw. A group of non-sensitized animals (negative controls) was likewise treated with ovalbumin in order to be able to rule out non-specific reactions to the protein. The parameter used to measure the action of the products was the percentage change in the increase in paw volume compared with that in the control group (positive controls) which, although sensitized, was untreated, 4 hours after the ovalbumin challenge, when the swelling had reached its maximum."}, "[3]": {"tested_on": "adjuvant-induced arthritis in the rat", "experiment": "Adjuvant arthritis (method of Pearson), paw volume", "assay_type": "in vivo, rat (male, Wistar-Lewis strain)", "conditions": "50 mg/kg p.o. once a day, day 1 to 5; reduction in increase in paw volume vs control", "method": "as §1\nThe investigations were carried out by the method of Pearson (Arthrit. Rheum. 2 (1959) page 44). The test animals used were male rats of a Wistar-Lewis strain with a body weight between 130 and 200 g. The compounds to be tested were administered orally (p.o.) in doses of 50 mg per kg of body weight once a day from the 1st to the 5th day of the experiment. The animals in a control group received only the vehicle. Each product and control group comprised 8 animals. The criterion used for an effect was the percentage reduction in the increase in paw volume compared with that in the untreated control group."}}, "data": [{"smiles": "CC(C)(C)c1cc(C(=O)N2CCCN(C(=O)OCc3ccccc3)CC2)cc(C(C)(C)C)c1O", "note": "[Example 1, 1-(4-Hydroxy-3,5-di-tert.-butylbenzoyl)-4-benzyloxycarbonylhomopiperazine]", "values": [{"measurement": "change in the weights (weight gain)", "setting": "[1]", "value": "no significant change in the weights"}, {"measurement": "% inhibition Proteinuria", "setting": "cGvH disease; 5 mg/kg/day p.o.", "value": 100, "unit": "%"}, {"measurement": "% inhibition cGvH index", "setting": "cGvH disease; 5 mg/kg/day p.o.", "value": 57, "unit": "%"}, {"measurement": "% inhibition Proteinuria", "setting": "cGvH disease; 20 mg/kg/day p.o.", "value": 80, "unit": "%"}, {"measurement": "% inhibition cGvH index", "setting": "cGvH disease; 20 mg/kg/day p.o.", "value": 75, "unit": "%"}, {"measurement": "Reverse passive Arthus reaction, % inhibition", "setting": "[2]; 100 mg/kg p.o.", "value": 25, "unit": "%"}, {"measurement": "% inhibition in paw volume day 5", "setting": "[3]", "value": 25, "unit": "%"}]}, {"smiles": "CC(C)(C)c1cc(C(=O)N2CCCNCC2)cc(C(C)(C)C)c1O", "note": "[Example 2, 1-(4-Hydroxy-3,5-di-tert.-butylbenzoyl)homopiperazine]", "values": [{"measurement": "change in the weights (weight gain)", "setting": "[1]", "value": "no significant change in the weights"}, {"measurement": "Reverse passive Arthus reaction, % inhibition", "setting": "[2]; 20 mg/kg p.o.", "value": 28, "unit": "%"}, {"measurement": "Reverse passive Arthus reaction, % inhibition", "setting": "[2]; 25 mg/kg p.o.", "value": 37, "unit": "%"}, {"measurement": "% inhibition in paw volume day 5", "setting": "[3]", "value": 34, "unit": "%"}]}]}
